Experimental data as given in US12227520B2 (priority 2019, dated 2025).
Like-named read-outs stand apart in the source and are kept apart here.

Assays:
HIV-1 (IIIB) = assay: Antiviral assay in MT-4 cells (HIV MT-4 antiviral assay); format: cell-based; conditions: Human immunodeficiency virus 1, IIIB, MT4, 120 h, HIV-1 (IIIB) in MT-4 cells, 5 days incubation; read-out: EC50
In short: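 MT-4 cells infected with HIV-1 IIIB (1:250 diluted stock) and exposed to 1:3 serially diluted compound in RPMI with 10% FBS. Viability read by CellTiter-Glo luminescence after 5 days at 37° C; mock-infected cells and 5 μM AZT as controls.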

[1] = Cytotoxicity assay in MT-4 cells; format: cell-based, human; conditions: human
In short: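 Infected MT-4 cells (HIV-1 IIIB, fresh 1:250 dilution of concentrated stock) or mock-infected cells exposed to compounds for 5 days at 37 °C. Viability by CellTiter-Glo luminescence; 5 μM AZT positive control, no-drug negative control. Uninfected cells used for cytotoxicity, with 10 μM puromycin as base-level cytotoxicity control.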

pLai RLuc reporter virus = assay: microbe, parasite or virus in culture; format: cell-based, HIV; conditions: Human immunodeficiency virus 1, 72 h
In short: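 MT-4 cells pre-infected 2 h at 37 °C with pLai RLuc virus, then exposed to 1:3 serial dilutions of compound in RPMI/10% FBS with or without 50% human serum for 72 h at 37 °C. Renilla luminescence read-out; serum shift = EC50(HS/CCM)/EC50(CCM).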

[2] = uninfected MT-4 cells, 5 days incubation, read-out: CC50
[3] = read-out: Antiviral Serum Shift RLuc 50% HS, HS/CCM (RPMI media, 10% FBS, 50% HS, 1% P/S), 72-h incubation
[4] = read-out: Antiviral Serum Shift RLuc CCM, CCM (RPMI media, 10% FBS, 1% P/S), 72-h incubation

| Structure (SMILES) | EC50 (HIV-1 (IIIB)) | CC50 at 5 days [1, 2] | EC50 (pLai RLuc reporter virus; [3]) | EC50 (pLai RLuc reporter virus; [4]) | CC50 at 5 days ([1]; CC50) |
| --- | --- | --- | --- | --- | --- |
| O=C(NCc1ccc(F)cc1F)c1cn2c(c(O)c1=O)C(=O)N1Cc3cc(F)c(F)cc3C[C@H]2C1 [Example 89, (6S)—N-(2,4-difluorobenzyl)-9,10-difluoro-1-hydroxy-2,14-dioxo-2,7,12,14-tetrahydro-6H-6,13-methanobenzo[f]pyrido[1,2-a][1,4]diazonine-3-carboxamide] | 2.38 nM | > 47.9 µM | 4.39 nM | 0.669 nM |  |
| O=C(NCc1ccc(F)c(Cl)c1F)c1cn2c(c(O)c1=O)C(=O)N1C[C@@H]2CCc2ccc(F)cc21 [Example 90-2, (12S)—N-(3-chloro-2,4-difluorobenzyl)-3-fluoro-7-hydroxy-6,8-dioxo-6,8,13,14-tetrahydro-12H-5,12-methanobenzo[e]pyrido[1,2-a][1,4]diazonine-9-carboxamide] | 2.42 nM | > 20.8 µM | 1.22 nM | 0.361 nM |  |
| O=C(NCc1ccc(F)cc1F)c1cn2c(c(O)c1=O)C(=O)N1C[C@H]2COc2cc(F)c(F)cc21 [Example 92-2, (6S)—N-(2,4-difluorobenzyl)-10,11-difluoro-1-hydroxy-2,14-dioxo-2,6,7,14-tetrahydro-6,13-methanobenzo[b]pyrido[2,1-f][1,4,7]oxadiazonine-3-carboxamide] | 2.01 nM | > 39.3 µM | 0.772 nM | 0.309 nM |  |
| CC[C@]1(O)CCCN2C[C@H]1n1cc(C(=O)NCc3c(F)cc(F)cc3F)c(=O)c(O)c1C2=O [Example 93] | 2.24 nM | > 40.4 µM | 1.55 nM | 0.462 nM |  |
| O=C(NCc1c(F)cc(F)cc1F)c1cn2c(c(O)c1=O)C(=O)N1C[C@@H]2CSc2ccccc21 [Example 94, (6R)-1-hydroxy-2,14-dioxo-N-(2,4,6-trifluorobenzyl)-2,6,7,14-tetrahydro-6,13-methanobenzo[b]pyrido[2,1-f][1,4,7]thiadiazonine-3-carboxamide] | 1.15 nM | 13.7 µM | 1.73 nM | 0.411 nM |  |
| O=C(NCc1c(F)cc(F)cc1F)c1cn2c(c(O)c1=O)C(=O)N1C[C@@H]2C[S+]([O-])c2ccccc21 (stereo partly drawn) [Example 95, (6R)-1-hydroxy-2,14-dioxo-N-(2,4,6-trifluorobenzyl)-2,6,7,14-tetrahydro-6,13-methanobenzo[b]pyrido[2,1-f][1,4,7]thiadiazonine-3-carboxamide 8-oxide] | 31.5 nM | > 50 µM | 4.84 nM | 5.18 nM |  |
| O=C(NCc1c(F)cc(F)cc1F)c1cn2c(c(O)c1=O)C(=O)N1C[C@@H]2CS(=O)(=O)c2ccccc21 [Example 96, (6R)-1-hydroxy-2,14-dioxo-N-(2,4,6-trifluorobenzyl)-2,6,7,14-tetrahydro-6,13-methanobenzo[b]pyrido[2,1-f][1,4,7]thiadiazonine-3-carboxamide 8,8-dioxide] | 18.1 nM | > 50 µM | 3.33 nM | 3.09 nM |  |
| C[C@H]1CCC[C@H]2CN1C(=O)c1c(O)c(=O)c(C(=O)NCc3c(F)cc(F)cc3F)cn12 [Example 98, (3S, 7S)-12-hydroxy-3-methyl-1,11-dioxo-N-(2,4,6-trifluorobenzyl)-1,4,5,6,7,11-hexahydro-3H-2,7-methanopyrido[1,2-a][1,4]diazonine-10-carboxamide] | 1.27 nM | 14.3 µM | 19.2 nM | 0.284 nM |  |
| CC[C@]1(OC)CCCN2C[C@H]1n1cc(C(=O)NCc3c(F)cc(F)cc3F)c(=O)c(O)c1C2=O [Example 100, (6S,7R)-6-ethyl-12-hydroxy-6-methoxy-1,11-dioxo-N-(2,4,6-trifluorobenzyl)-1,4,5,6,7,11-hexahydro-3H-2,7-methanopyrido[1,2-a][1,4]diazonine-10-carboxamide] | 1.58 nM | 9.44 µM | 1.77 nM | 0.631 nM |  |
| O=C(NCc1c(F)cc(F)cc1F)c1cn2c(c(O)c1=O)C(=O)N1CC=CC[C@H]2C1 [Example 101, (7S)-12-hydroxy-1,11-dioxo-N-(2,4,6-trifluorobenzyl)-1,6,7,11-tetrahydro-3H-2,7-methanopyrido[1,2-a][1,4]diazonine-10-carboxamide] | 1.52 nM | 19.5 µM | 1.62 nM | 0.22 nM |  |
| O=C(NCc1c(F)cc(F)cc1F)c1cn2c(c(O)c1=O)C(=O)N1C[C@@H]2CCc2sccc21 [Example 104-1, (11S)-6-hydroxy-5,7-dioxo-N-(2,4,6-trifluorobenzyl)-5,7,12,13-tetrahydro-11H-4,11-methanopyrido[1,2-a]thieno[3,2-e][1,4]diazonine-8-carboxamide] | 1.48 nM | 11.9 µM | 1.99 nM | 0.323 nM |  |
| C[C@@H]1CC[C@H]2CN(C(=O)c3c(O)c(=O)c(C(=O)NCc4c(F)cc(F)cc4F)cn32)[C@H]1C [Example 108-1, (3S,4R,7S)-12-hydroxy-3,4-dimethyl-1,11-dioxo-N-(2,4,6-trifluorobenzyl)-1,4,5,6,7,11-hexahydro-3H-2,7-methanopyrido[1,2-a][1,4]diazonine-10-carboxamide] | 0.997 nM | 16.1 µM | 1.31 nM | 0.2 nM |  |
| C[C@H]1CC[C@H]2CN(C(=O)c3c(O)c(=O)c(C(=O)NCc4c(F)cc(F)cc4F)cn32)[C@H]1C [Example 108-2, (3S,4S,7S)-12-hydroxy-3,4-dimethyl-1,11-dioxo-N-(2,4,6-trifluorobenzyl)-1,4,5,6,7,11-hexahydro-3H-2,7-methanopyrido[1,2-a][1,4]diazonine-10-carboxamide] | 0.917 nM | 11.8 µM | 1.55 nM | 0.335 nM |  |
| O=C(NCc1c(F)cc(F)cc1F)c1cn2c(c(O)c1=O)C(=O)N1CCC=C[C@@H]2C1 [Example 109-1, (7R)-12-hydroxy-1,11-dioxo-N-(2,4,6-trifluorobenzyl)-1,4,7,11-tetrahydro-3H-2,7-methanopyrido[1,2-a][1,4]diazonine-10-carboxamide] | 1.81 nM | 11.3 µM | 50.8 nM | 0.527 nM |  |
| O=C(NCc1c(F)cc(F)cc1F)c1cn2c(c(O)c1=O)C(=O)N1CCC=C[C@H]2C1 [Example 109-2, (7S)-12-hydroxy-1,11-dioxo-N-(2,4,6-trifluorobenzyl)-1,4,7,11-tetrahydro-3H-2,7-methanopyrido[1,2-a][1,4]diazonine-10-carboxamide] | 1.47 nM | 11.8 µM | 4.34 nM | 0.236 nM |  |
| C[C@H]1CC(F)(F)C[C@H]2CN1C(=O)c1c(O)c(=O)c(C(=O)NCc3c(F)cc(F)cc3F)cn12 [Example 113, (3S,7S)-5,5-difluoro-12-hydroxy-3-methyl-1,11-dioxo-N-(2,4,6-trifluorobenzyl)-1,4,5,6,7,11-hexahydro-3H-2,7-methanopyrido[1,2-a][1,4]diazonine-10-carboxamide] | 1.42 nM | 16.9 µM | 0.62 nM | 0.514 nM |  |
| O=C(NCc1c(F)cc(F)cc1F)c1cn2c(c(O)c1=O)C(=O)N1CCC(F)(F)C[C@H]2C1 [Example 114, (7S)-5,5-difluoro-12-hydroxy-1,11-dioxo-N-(2,4,6-trifluorobenzyl)-1,4,5,6,7,11-hexahydro-3H-2,7-methanopyrido[1,2-a][1,4]diazonine-10-carboxamide] | 2.27 nM | 30.5 µM | 1.04 nM | 0.717 nM |  |
| C[C@]1(F)CCN2C[C@H](C1)n1cc(C(=O)NCc3c(F)cc(F)cc3F)c(=O)c(O)c1C2=O [Example 115-1, (5S,7S)-5-fluoro-12-hydroxy-5-methyl-1,11-dioxo-N-(2,4,6-trifluorobenzyl)-1,4,5,6,7,11-hexahydro-3H-2,7-methanopyrido[1,2-a][1,4]diazonine-10-carboxamide] | 1.48 nM | 12.2 µM | 0.713 nM | 0.271 nM |  |
| O=C(NCc1c(F)cc(F)cc1F)c1cn2c(c(O)c1=O)C(=O)N1CCC(F)=C[C@H]2C1 [Example 121, (7S)-5-fluoro-12-hydroxy-1,11-dioxo-N-(2,4,6-trifluorobenzyl)-1,4,7,11-tetrahydro-3H-2,7-methanopyrido[1,2-a][1,4]diazonine-10-carboxamide] | 1.76 nM | 24.8 µM | 0.505 nM | 0.235 nM |  |
| O=C(NCc1c(F)cc(F)c(F)c1F)c1cn2c(c(O)c1=O)C(=O)N1CCCC[C@H]2C1 [Example 125, (7S)-12-hydroxy-1,11-dioxo-N-(2,3,4,6-tetrafluorobenzyl)-1,4,5,6,7,11-hexahydro-3H-2,7-methanopyrido[1,2-a][1,4]diazonine-10-carboxamide] | 2.95 nM | 10.2 µM | 1.97 nM | 0.328 nM |  |
| O=C(NCc1c(F)cc(F)cc1F)c1cn2c(c(O)c1=O)C(=O)N1C[C@@H]2CCCC12CC2 [Example 129, (7'S)-12′-hydroxy-1′,11′-dioxo-N-(2,4,6-trifluorobenzyl)-1′,4′,5′,6′,7′,11′-hexahydrospiro[cyclopropane-1,3′-[2,7]methanopyrido[1,2-a][1,4]diazonine]-10′-carboxamide] | 1.53 nM |  | 4.21 nM | 0.309 nM | 7.44 µM |
